# Assay results reported in patent US5429774A, “Benzopyran compounds” (Transitions Optical, Inc., priority 1994, dated 1995).
# Experiment: photochromic response on an optical bench in ethyl cellulose resin (lambda max, sensitivity, saturation optical density, bleach rate)
# Type: physicochemical
# Details: for Δ OD @ SAT (saturation optical density): UV exposure 15 minutes; for Δ OD @ SAT (saturation optical density) / Sensitivity Δ OD/MIN / Bleach rate T 1/2: ethyl cellulose resin; for Lambda max Band A / Lambda max Band B: activated (colored) form, in ethyl cellulose resin; for Sensitivity Δ OD/MIN: first five (5) seconds of UV exposure, expressed on a per minute basis, 75° F. (23.9° C.); for Bleach rate T 1/2: time to one half the highest absorbance at room temperature (72° F., 22.2° C.) after removal of activating light; for sensitivity versus Comparative Examples (in words): comparison of Table 1 results
# Protocol: The photochromic compounds prepared in the Examples and the Comparative Examples were incorporated into an ethyl cellulose resin by the following procedure. About 30 milligrams of the photochromic compound was added to 2.0 grams of a 10 weight percent ethyl cellulose solution in toluene. The photochromic compound was dissolved by warming and stirring on a steam bath. Approximately 2.0 grams of the resultant solution was deposited on the edge of a 75 by 25 millimeter (mm) glass slide. Using a draw down bar, a 0.2 mm layer of photochromic resin solution was placed evenly on the slide and permitted to dry.
# The photochromic test samples prepared in Part A were tested for photochromic response rates on an optical bench. Prior to testing on the optical bench, the photochromic test samples were exposed to 365 nanometer (nm) ultraviolet light for about 15 minutes to activate the photochromic compounds and then placed into a 76° C. oven for about 15 minutes to bleach or inactivate the photochromic compounds. The test samples were then cooled to room temperature, exposed to fluorescent room lighting for at least 2 hours and then kept covered for at least 2 hours prior to testing on an optical bench maintained at 75° F. (23.9° C.).
# The optical bench comprises a 150 watt Xenon arc lamp, a tungsten lamp, power supplies for both lamps, condensing lenses as needed to maintain collimated light beams from both lamps, a remote controlled shutter, a copper sulfate bath acting as a heat sink for the arc lamp, a Schott WG-320 nm cut-off filter which removes short wavelength radiation, neutral density filter(s), a sample holder in which the sample to be tested is inserted, a photopic filter, light detector, and radiometer assembly, a strip chart recorder, and a means for maintaining the alignment of the aforestated components during testing.
# Change in optical density (ΔOD) of a sample was determined by inserting a photochromic test sample in the bleached state into the sample holder, adjusting the transmittance scale to 100%, opening the shutter from the Xenon lamp to provide ultraviolet radiation to change the sample from the bleached state to an activated (darkened) state, measuring the transmittance through the sample. The transmittance was measured by directing a beam of light from the tungsten lamp at a small angle normal to the surface of the sample, through the sample, and to a photopic filter, light detector and radiometer assembly. The photopic filter passes wavelengths such that the detector mimics the response of the human eye and produces output signals that are processed by the radiometer. The change in optical density was calculated according to the formula Δ OD=log(100/% Ta) where % Ta is the percent transmittance in the activated state and the logarithm is to the base 10.
# The Δ OD/Min, which represents the sensitivity of the photochromic compound's response to UV light, was measured over the first five (5) seconds of UV exposure, then expressed on a per minute basis. The saturation optical density (OD) was taken under identical conditions as the Δ OD/Min, except UV exposure was continued for 15 minutes. The lambda max value, which is the maximum absorption of the activated (colored) form of the photochromic compound in ethyl cellulose resin, may occur at one or two wavelengths reported as Band A and Band B in Table 1. The Bleach Rate T 1/2 is the time interval in seconds for the absorbance of the activated form of the benzopyran in the test sample to reach one half the highest absorbance at room temperature (72° F., 22.2° C.) after removal of the source of activating light.
Δ OD @ SAT (saturation optical density),Lambda max Band A,Sensitivity Δ OD/MIN,Bleach rate T 1/2,sensitivity versus Comparative Examples (in words),Lambda max Band B,Compound
0.27,482,0.27 OD/MIN,10.3 min,,,"3-(2-fluorophenyl)-3-(benzofur-2-yl)-3H-benzo(b)thieno[3,2-f]-1-benzopyran [Example 7]"
0.52,460,0.76 OD/MIN,2.03 min,greater than Comparative Example 2,,"C1=CC(c2ccccc2)(c2cc3ccccc3s2)Oc2ccc3ccccc3c21 (stereo not drawn) [Example 3, 3-phenyl-3-(benzothiophen-2-yl)-3H-naphtho[2,1-b]pyran]"
0.18,430,0.42 OD/MIN,1.42 min,,522,"C1=CC(c2ccccc2)(c2ccccc2)Oc2ccc3oc4ccccc4c3c21 [Comparative Example 2, 3,3-diphenyl-(3H)-benzo(b)furo[3,2-f]-1-benzopyran, reference compound]"
0.34,453,0.26 OD/MIN,5.18 min,,482,"C1=CC(c2ccccc2)(c2cc3ccccc3o2)Oc2ccc3oc4ccccc4c3c21 (stereo not drawn) [Example 4, 3-phenyl-3-(benzofur-2-yl)-3H-benzo(b)furo[3,2-f]-1-benzopyran]"
0.23,476,0.25 OD/MIN,3.77 min,,545,"C1=CC(c2ccccc2)(c2cc3ccccc3s2)Oc2ccc3oc4ccccc4c3c21 (stereo not drawn) [Example 8, 3-phenyl-3-(benzothiophen-2-yl)-3H-benzo(b)furo[3,2-f]-1-benzopyran]"
0.86,448,0.49 OD/MIN,> 20 min,greater than Comparative Example 2,507,"COc1ccccc1C1(c2cc3ccccc3o2)C=Cc2cc3oc4ccccc4c3cc2O1 (stereo not drawn) [Example 6, 2-(2-methoxyphenyl)-2-(benzofur-2-yl)-2H-benzo(b)furo[2,3-g]-benzopyran]"
0.31,432,0.87 OD/MIN,0.533 min,,,"C1=CC(c2ccccc2)(c2ccccc2)Oc2ccc3ccccc3c21 [Comparative Example 1, 3,3-diphenyl-3H-naphtho [2,1-b]pyran, reference compound]"
0.98,482,0.66 OD/MIN,> 20 min,greater than Comparative Example 2,532,"COc1ccccc1C1(c2cc3ccccc3o2)C=Cc2c(ccc3sc4ccccc4c23)O1 (stereo not drawn) [Example 10, 3-(2-methoxyphenyl)-3-(benzofur-2-yl)-3H-benzo(b)thieno[3,2-f]-1-benzopyran]"
0.18,444,0.22 OD/MIN,2.97 min,,515,"C1=CC(c2ccccc2)(c2csc3ccccc23)Oc2ccc3oc4ccccc4c3c21 (stereo not drawn) [Example 9, 3-phenyl-3-(benzothiophen-3-yl)-3H-benzo(b)furo[3,2-f]-1-benzopyran]"
0.34,440,0.62 OD/MIN,1.55 min,greater than Comparative Example 2,,"C1=CC(c2ccccc2)(c2csc3ccccc23)Oc2ccc3ccccc3c21 (stereo not drawn) [Example 5, 3-phenyl-3-(benzothiophen-3-yl)-3H-naphtho[2,1-b]pyran]"
0.84,462,0.59 OD/MIN,> 30 min,greater than Comparative Example 2,,"Fc1ccccc1C1(c2cc3ccccc3o2)C=Cc2c(ccc3ccccc23)O1 (stereo not drawn) [Example 2, 3-(2-fluorophenyl)-3-(benzofur-2-yl)-3H-naphtho[2,1-b]pyran]"

Compound,Δ OD @ SAT (saturation optical density),Lambda max Band A,Sensitivity Δ OD/MIN,Bleach rate T 1/2,sensitivity versus Comparative Examples (in words),Lambda max Band B
"C1=CC(c2ccccc2)(c2cc3ccccc3o2)Oc2ccc3ccccc3c21 (stereo not drawn) [Example 1, 3-phenyl-3-(benzofur-2-yl)-3H-naphtho[2,1-b]pyran]",0.95,467,1.15 OD/MIN,5.75 min,greater than Comparative Examples 1 and 2,
